Patent publication US5336483A (priority 1993, dated 1994)
“Also recorded” adds a separate entry of the source. Where two headings read alike, the source gives them in different places.

What was measured:
μ and κ2 receptor = test: Displacement of [^3 H]CycloFOXY, μ and κ2 receptor binding, rat brain lysed-P2 membranes
[1] = target: T1, High Affinity δ Receptors (Rattus norvegicus, UniProt P33533); test: Displacement of [^3 H]DADLE, high affinity δ receptors, rat lysed-P2 membranes; type: binding
T1 construct: and rat lysed-P2 membranes as previously described; from tissue; host or cells: rat lysed-P2 membranes (brain)
T1 sequence (P33533 whole entry): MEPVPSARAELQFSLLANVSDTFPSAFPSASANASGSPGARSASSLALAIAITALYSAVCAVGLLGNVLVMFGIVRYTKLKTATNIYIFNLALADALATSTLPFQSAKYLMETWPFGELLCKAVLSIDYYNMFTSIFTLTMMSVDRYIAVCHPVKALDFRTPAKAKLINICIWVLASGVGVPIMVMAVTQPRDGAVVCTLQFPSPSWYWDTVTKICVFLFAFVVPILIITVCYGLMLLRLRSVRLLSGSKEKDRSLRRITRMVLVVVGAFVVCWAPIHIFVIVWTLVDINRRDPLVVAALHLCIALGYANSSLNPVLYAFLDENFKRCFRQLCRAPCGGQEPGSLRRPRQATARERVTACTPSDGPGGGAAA

κ1 receptor = target: T2, κ1 receptor (Cavia porcellus, UniProt P41144); test: biochemical; type: binding, guinea pig
T2 construct: from tissue; host or cells: guinea pig brain membranes, pretreated with BIT and FIT
T2 sequence (P41144 whole entry): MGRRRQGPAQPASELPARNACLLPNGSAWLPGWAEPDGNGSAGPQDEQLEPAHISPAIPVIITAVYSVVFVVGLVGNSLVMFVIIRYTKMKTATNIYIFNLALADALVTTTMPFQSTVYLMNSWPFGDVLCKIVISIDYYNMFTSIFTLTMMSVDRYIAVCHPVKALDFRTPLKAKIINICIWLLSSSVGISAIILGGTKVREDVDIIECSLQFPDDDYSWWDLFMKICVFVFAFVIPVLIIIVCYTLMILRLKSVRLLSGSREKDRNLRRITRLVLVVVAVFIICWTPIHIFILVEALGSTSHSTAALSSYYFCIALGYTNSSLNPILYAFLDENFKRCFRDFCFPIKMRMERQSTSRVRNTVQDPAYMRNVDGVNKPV

[2] = system: morphine-induced analgesia; test: In vivo antagonist activity: reversal of morphine-induced analgesia, rat paw withdrawal latency test; settings: for paw withdrawal latency after i.v. injection / reversal of behavioral arrest and other opioid effects / duration of reversal: 5 mg/kg i.v.; for paw withdrawal latency after i.v. injection: tested within 5-10 min; for paw withdrawal latency after i.v. injection / duration of reversal: morphine-treated rats; for reversal of behavioral arrest and other opioid effects: morphine sulphate 10 mg/kg s.c.; for blood brain barrier penetration: i.v., inferred from reversal of morphine effects in rats; for antagonist potency in vivo (comparison in words): morphine induced paw withdrawal latency; for reversal of the effects of morphine: rat paw withdrawal latency test; for prodrug behaviour: acetate esters vs 1 and 2
Description: Assessment of the ability of compounds 1, 2 and 10, 12 to cross the blood brain barrier was tested in male Sprague-Dawley rats (300 g) acutely treated with morphine. […] A baseline paw withdrawal to a radiant thermal stimulus was obtained in unrestrained animals as described in Iadarola et al., Brain Res. 1988, 455, 205-212 and Hargreaves, Pain 1988, 32, 77-78. The stimulus was set to give a baseline withdrawal latency of approximately 10 sec. and the cutoff was at 18 sec. After baseline testing, morphine sulphate, 10 mg/kg, was injected subcutaneously in a volume of 0.1 ml of saline/100 g of body weight.
Ioxy (1) and epiloxy (2) were evaluated in rat and guinea pig brain membranes for their opiate receptor selectivity and potency. […] This comparison was not made during development of the ^18 F cyclofoxy compounds.

κ2 receptor = test: Displacement of [^3 H]BRM (bremazocine), κ2 receptor binding, guinea pig brain membranes depleted of μ and δ sites; settings: for less potent (fold) than ioxy: [^3 H]BRM displacement
Low Affinity δ Receptors = test: Displacement of [^3 H]DADLE, low affinity δ receptors, rat lysed-P2 membranes; type: binding
μ receptor = target: T3, μ receptor (Rattus norvegicus, UniProt P33535); test: Displacement of [^3 H]DAGO, μ receptor binding, rat lysed-P2 membranes
T3 construct: and rat lysed-P2 membranes as previously described; from tissue; host or cells: rat brain, lysed-P2 membranes
T3 sequence (P33535 whole entry): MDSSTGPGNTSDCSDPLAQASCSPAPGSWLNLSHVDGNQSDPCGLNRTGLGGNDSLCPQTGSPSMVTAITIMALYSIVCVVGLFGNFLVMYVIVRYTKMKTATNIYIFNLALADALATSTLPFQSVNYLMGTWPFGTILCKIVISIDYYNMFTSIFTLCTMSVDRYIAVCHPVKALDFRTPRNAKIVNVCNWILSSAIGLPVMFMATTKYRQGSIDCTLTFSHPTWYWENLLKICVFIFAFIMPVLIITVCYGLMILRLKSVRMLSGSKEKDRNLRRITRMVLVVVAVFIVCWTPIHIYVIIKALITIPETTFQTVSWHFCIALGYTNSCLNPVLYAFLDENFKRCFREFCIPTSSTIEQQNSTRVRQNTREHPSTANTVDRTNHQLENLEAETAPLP

[3] = system: opiate rich areas of rat brain; test: In vivo labelling of rat brain determined by autoradiography; settings: i.v. in rats, preliminary
Description: The radiolabelled products were stored at -20° C. and used within 1 week of purification. The material was dried down under a gentle stream of nitrogen and redissolved in normal saline prior to intravenous (IV) injection into rats (300 g, male Sprague-Dawley) in a volume of 100 μl/100 g body weight.
Cleavage of the 3-O-acetyl group of [^125 I]3-O-Acetylioxy ([^125 I]10) was performed starting with 315 μCi of [^125 I]3-O-Acetylioxydissolved in 50 μl of acetonitrile. To this solution at 25° C. was added 50 μl of concentrated aqueous ammonia solution and the reaction mixture was allowed to stand at 25° C. for 20 min. The reaction solvent was removed by careful evaporation under a stream of nitrogen. The residue was dissolved in 50 μl of 0.1% aqueous TFA/acetonitrile and purified by HPLC as described above for [^125 I]3-O-Acetylioxy to give [^125 I]1 (279 μCi, 88.5% yield). […] The [^125 I]ioxy eluted with the exact elution profile of unlabelled ioxy(1). The product was stored at -20° C. and used within 1 week of purification. The material was dried down under a gentle stream of nitrogen and redissolved in normal saline prior to intravenous (IV) injection into rats (300 g, male Sprague-Dawley) in a volume of 100 μl/100 g body weight.

Oc1ccc2c3c1O[C@H]1[C@H](I)CC[C@@]4(O)[C@@H](C2)N(CC2CC2)CC[C@]314 [IOXY, 6β-Iodo-3,14-Dihydroxy-17-Cyclopropylmethyl-4,5α-Epoxymorphinan]
IC50 (μ and κ2 receptor): 0.77 ± 0.05 nM
Ki (μ and κ2 receptor): 0.29 nM
relative affinity / potency in words (μ and κ2 receptor; [^3 H]CycloFOXY displacement): more potent than the opiate antagonist, naltrexone
IC50 [1]: 5.6 ± 3.1 nM
Ki [1]: 11.7 nM
N (slope factor) ([1]; [^3 H]DADLE, high affinity δ): 0.77 ± .07
IC50 (κ1 receptor): 0.89 ± 0.01 nM
Ki (κ1 receptor): 0.42 nM
N (slope factor) (κ1 receptor): 1.04 ± .02
kappa selectivity κ1/μ (κ1 receptor): 1.9
relative potency in words (κ1 receptor): most potent displacers
paw withdrawal latency after i.v. injection [2]: returned to near baseline values
reversal of behavioral arrest and other opioid effects [2]: reversed in a matter of seconds
duration of reversal [2]: at least 40 min
blood brain barrier penetration [2]: readily passed the blood brain barrier
blood brain barrier penetration ([2]; listed as 1): getting into the brain
antagonist potency in vivo (comparison in words) ([2]; listed as Ioxy): more potent in vivo than compound 2 and cyclofoxy
antagonist potency in vivo (comparison in words) ([2]; listed as ioxy): potent opioid receptor antagonist in the rat; also recorded: more effective than epiioxy
reversal of the effects of morphine [2]: complete reversal of the effects of morphine
IC50 (κ2 receptor): 7.65 ± 0.23 nM
Ki (κ2 receptor): 2.73 nM
kappa selectivity κ2/μ (κ2 receptor; ratio κ2/μ): 0.3
Ki (Low Affinity δ Receptors): 2.25 nM
relative affinity in words (Low Affinity δ Receptors; [^3 H]DADLE, low affinity δ): highest affinity of all the compounds tested
IC50 (Low Affinity δ Receptors; […], ligand concentration = 2.1 nM): 2.64 ± 0.21 nM
IC50 (μ receptor): 2.74 ± 0.21 nM
Ki (μ receptor): 0.8 nM
N (slope factor) (μ receptor; [^3 H]DAGO displacement): 1.05 ± .07
relative potency in words (μ receptor; [^3 H]DAGO displacement): most potent

CC(=O)Oc1ccc2c3c1O[C@H]1[C@H]([125I])CC[C@@]4(O)[C@@H](C2)N(CC2CC2)CC[C@]314 [[^125 I]10, [^125 I]3-Acetoxy-6β-Iodo-14-Hydroxy-17-Cyclopropylmethyl-4,5α-Epoxymorphinan]
in vivo labelling of rat brain [3]: could label opiate rich areas of rat brain

CC(=O)Oc1ccc2c3c1O[C@H]1[C@@H](I)CC[C@@]4(O)[C@@H](C2)N(CC2CC2)CC[C@]314 [Compound 12, 3-Acetoxy-6α-Iodo-14-Hydroxy-17-Cyclopropylmethyl-4,5α-Epoxymorphinan]
paw withdrawal latency after i.v. injection [2]: returned to near baseline values
reversal of behavioral arrest and other opioid effects [2]: reversed in a matter of seconds
duration of reversal [2]: at least 40 min
prodrug behaviour [2]: served as prodrug forms of 1 and 2
blood brain barrier penetration [2]: getting into the brain; also recorded: penetrated the blood brain barrier more effectively
antagonist potency in vivo (comparison in words) [2]: more potent effects on morphine induced paw withdrawal latency than their corresponding phenolic counterparts
reversal of the effects of morphine [2]: complete reversal of the effects of morphine

Oc1ccc2c3c1O[C@H]1[C@H]([125I])CC[C@@]4(O)[C@@H](C2)N(CC2CC2)CC[C@]314 [[^125 I]1]
in vivo labelling of rat brain [3]: could label opiate rich areas of rat brain

[D-ala^2, D-leu^5 ]enkephalin [[^3 H] DADLE, reference compound]
Kd (Low Affinity δ Receptors; [^3 H]DADLE, low affinity δ, δcx site, read-out: Kd of radioligand): 12.2 nM

Oc1ccc2c3c1O[C@H]1[C@H](Br)CC[C@@]4(O)[C@@H](C2)N(CC2CC2)CC[C@]314 [CycloBROXY, reference compound]
IC50 (μ and κ2 receptor): 3.14 ± 0.11 nM
Ki (μ and κ2 receptor): 1.19 nM
relative affinity / potency in words (μ and κ2 receptor; [^3 H]CycloFOXY displacement): intermediate receptor affinity
Ki [1]: 1.96 nM
N (slope factor) ([1]; [^3 H]DADLE, high affinity δ): 0.99 ± .09
higher affinity (fold) ([1]; [^3 H]DADLE, high affinity δ): 6 fold
IC50 ([1]; read-out: IC50): 4.3 nM
IC50 (κ1 receptor): 0.7 ± 0.02 nM
Ki (κ1 receptor): 0.32 nM
N (slope factor) (κ1 receptor; [^3 H]U69,593 displacement): 1.03 ± .03
relative potency in words (κ1 receptor; [^3 H]U69,593 displacement): most potent displacers
IC50 (κ2 receptor): 20.2 ± 1.2 nM
Ki (κ2 receptor): 7.21 nM
less potent (fold) than ioxy (κ2 receptor): 3 fold
IC50 (Low Affinity δ Receptors): 5.77 ± 0.14 nM
Ki (Low Affinity δ Receptors): 4.92 nM
IC50 (μ receptor): 4.21 ± 0.14 nM
Ki (μ receptor): 1.23 nM
N (slope factor) (μ receptor; [^3 H]DAGO displacement): 1.05 ± .04
lower affinity / less potent (fold) than ioxy (μ receptor; [^3 H]DAGO displacement): about 1.5 fold

Oc1ccc2c3c1O[C@H]1[C@@H](I)CC[C@@]4(O)[C@@H](C2)N(CC2CC2)CC[C@]314 [EpilOXY, 6α-Iodo-3,14-Dihydroxy-17-Cyclopropylmethyl-4,5α-Epoxymorphinan]
IC50 (μ and κ2 receptor): 4.34 ± 0.19 nM
Ki (μ and κ2 receptor): 1.65 nM
reduction in affinity (fold) compared with ioxy (1) (μ and κ2 receptor; [^3 H]CycloFOXY displacement): 6 fold
Ki [1]: 46.2 nM
N (slope factor) ([1]; [^3 H]DADLE, high affinity δ): 0.99 ± .07
lowered affinity / less potent (fold) than ioxy (1) ([1]; [^3 H]DADLE, high affinity δ): 4 fold
IC50 ([1]; read-out: IC50): 101 ± 8.4 nM
IC50 (κ1 receptor): 3.17 ± 0.06 nM
Ki (κ1 receptor): 1.49 nM
N (slope factor) (κ1 receptor): 1.10 ± .02
less potent (fold) than ioxy (κ1 receptor): 4 fold
paw withdrawal latency after i.v. injection [2]: returned to near baseline values
reversal of behavioral arrest and other opioid effects [2]: reversed in a matter of seconds
duration of reversal [2]: at least 40 min
blood brain barrier penetration [2]: getting into the brain
reversal of the effects of morphine [2]: complete reversal of the effects of morphine
IC50 (κ2 receptor): 23.7 ± 1.1 nM
Ki (κ2 receptor): 8.46 nM
less potent (fold) than ioxy (κ2 receptor): 3 fold
IC50 (Low Affinity δ Receptors): 8.06 ± 0.58 nM
Ki (Low Affinity δ Receptors): 6.88 nM
lower affinity (fold) than ioxy (1) (Low Affinity δ Receptors; [^3 H]DADLE, low affinity δ): 3 fold
IC50 (μ receptor): 7.16 ± 0.72 nM
Ki (μ receptor): 2.09 nM
N (slope factor) (μ receptor; [^3 H]DAGO displacement): 0.95 ± .08
lower affinity / less potent (fold) than ioxy (μ receptor; [^3 H]DAGO displacement): 2 fold

O=C1CC[C@@]2(O)[C@H]3Cc4ccc(O)c5c4[C@@]2(CCN3CC2CC2)[C@H]1O5 [Naltrexone, reference compound]
paw withdrawal latency after i.v. injection [2]: returned to near baseline values
reversal of behavioral arrest and other opioid effects [2]: reversed in a matter of seconds
reversal of the effects of morphine [2]: complete reversal of the effects of morphine

Oc1ccc2c3c1O[C@H]1[C@H](F)CC[C@@]4(O)[C@@H](C2)N(CC2CC2)CC[C@]314 [CycloFOXY, 6β-fluoro-3,14-dihydroxy-17-cyclopropyl methyl-4,5α-epoxymorphinan, reference compound]
kappa selectivity κ1/μ (κ1 receptor; ratio κ1/μ): 0.89

CC(=O)Oc1ccc2c3c1O[C@H]1[C@H](I)CC[C@@]4(O)[C@@H](C2)N(CC2CC2)CC[C@]314 [Compound 10, 3-Acetoxy-6β-Iodo-14-Hydroxy-17-Cyclopropylmethyl-4,5α-Epoxymorphinan]
paw withdrawal latency after i.v. injection [2]: returned to near baseline values
reversal of behavioral arrest and other opioid effects [2]: reversed in a matter of seconds
duration of reversal [2]: at least 40 min
prodrug behaviour [2]: served as prodrug forms of 1 and 2
blood brain barrier penetration [2]: getting into the brain; also recorded: penetrated the blood brain barrier more effectively
antagonist potency in vivo (comparison in words) [2]: more potent effects on morphine induced paw withdrawal latency than their corresponding phenolic counterparts
reversal of the effects of morphine [2]: complete reversal of the effects of morphine

Oc1ccc2c3c1O[C@H]1[C@H](F)CC[C@@]4(O)[C@@H](C2)N(CC2CC2)CC[C@]314 [[^3 H]CycloFOXY, reference compound]
Kd (μ and κ2 receptor; [^3 H]CycloFOXY, read-out: Kd of radioligand): 0.8 nM
